Assay results: ChEMBL document CHEMBL1139572 (Bioorg Med Chem Lett, 2005)

Legend:
Progesterone receptor [1] = biological target: T1, Progesterone receptor (Homo sapiens, UniProt P06401); test: Inhibition of 4 nM progesterone-stimulated transactivation of MMTV-Luc reporter in CV-1 cells expressing PR-B; format: functional, cell-based
T1 sequence (P06401 whole entry): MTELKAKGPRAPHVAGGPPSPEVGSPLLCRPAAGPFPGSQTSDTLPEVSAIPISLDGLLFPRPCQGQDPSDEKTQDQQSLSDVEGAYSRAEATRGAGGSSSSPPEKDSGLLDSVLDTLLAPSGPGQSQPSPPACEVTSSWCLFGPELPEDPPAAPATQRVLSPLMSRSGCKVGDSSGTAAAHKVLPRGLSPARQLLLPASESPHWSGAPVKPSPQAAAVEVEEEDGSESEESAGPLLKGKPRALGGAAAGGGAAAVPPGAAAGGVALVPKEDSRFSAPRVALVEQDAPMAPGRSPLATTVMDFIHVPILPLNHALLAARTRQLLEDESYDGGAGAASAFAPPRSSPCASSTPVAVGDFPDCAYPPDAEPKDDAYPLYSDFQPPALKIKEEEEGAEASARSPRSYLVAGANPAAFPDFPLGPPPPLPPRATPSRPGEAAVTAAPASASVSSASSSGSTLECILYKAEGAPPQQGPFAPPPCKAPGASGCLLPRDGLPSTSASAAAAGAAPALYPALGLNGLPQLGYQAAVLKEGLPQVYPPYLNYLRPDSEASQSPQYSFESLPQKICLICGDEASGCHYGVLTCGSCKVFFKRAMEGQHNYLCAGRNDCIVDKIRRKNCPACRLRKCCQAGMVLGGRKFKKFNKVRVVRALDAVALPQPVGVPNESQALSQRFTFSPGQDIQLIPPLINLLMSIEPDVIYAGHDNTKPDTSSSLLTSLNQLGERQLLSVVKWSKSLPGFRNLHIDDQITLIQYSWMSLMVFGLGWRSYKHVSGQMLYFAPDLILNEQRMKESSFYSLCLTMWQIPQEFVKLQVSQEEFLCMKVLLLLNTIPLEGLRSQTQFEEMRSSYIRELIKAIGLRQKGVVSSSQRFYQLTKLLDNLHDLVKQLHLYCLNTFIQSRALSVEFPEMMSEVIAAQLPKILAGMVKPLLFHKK

Progesterone receptor [2] = biological target: T1, Progesterone receptor; test: Displacement of fluorescent ligand from binding domain of progesterone receptor

| Log IC50 (Progesterone receptor [1]) | Ki (Progesterone receptor [2]) [µM] | Compound |
| --- | --- | --- |
| -5.3 | 2 | C[C@@H]1CN(S(=O)(=O)c2ccc(Cl)cc2)N=C1c1ccc(Cl)c(Cl)c1 |
| > -5.5 | > 10 | CN(C)c1ccc([C@H]2CN(S(=O)(=O)c3ccc(Cl)cc3)N=C2c2ccc(Cl)c(Cl)c2)cc1 |
| -7.6 | 0.02 | C[C@H]1CN(S(=O)(=O)c2ccc(Cl)cc2)N=C1c1ccc(Cl)c(Cl)c1 |
| -6.4 | 7.94 | O=S(=O)(c1ccc(Cl)cc1)N1N=C(c2ccc(Cl)c(Cl)c2)CC1c1ccccc1 (stereo unspecified) |
|  | 0.0398 | CC1CN(S(=O)(=O)c2ccc(Cl)cc2)N=C1c1ccc(Cl)c(Cl)c1 (stereo unspecified) |
| -6.1 | 0.0398 | CN(C)c1ccc(C2CN(S(=O)(=O)c3ccc(Cl)cc3)N=C2c2ccc(Cl)c(Cl)c2)cc1 (stereo unspecified) |
| -6.7 | 0.0398 | CC1CC(c2ccc(Cl)c(Cl)c2)=NN1S(=O)(=O)c1ccc(Cl)cc1 (stereo unspecified) |
|  | 0.1 | O=S(=O)(c1ccc(Cl)cc1)N1CC(c2ccccc2)C(c2ccc(Cl)c(Cl)c2)=N1 (stereo unspecified) |
| -5.8 | 0.1 | CN(C)c1ccc([C@@H]2CN(S(=O)(=O)c3ccc(Cl)cc3)N=C2c2ccc(Cl)c(Cl)c2)cc1 |
